Data on 41 molecules can be found in patent US9127233B2, “Device and method for solubilizing, separating, removing and reacting carboxylic acids in oils, fats, aqueous or organic solutions by means of micro-or nanoemulsification” (priority 2010, dated 2015).

“And” between values parts separate entries of the source, which are not always exact repeats. Equal values may be shown once. Where a name gives a salt, the structure may show the parent alone. Read-outs that look alike come from different tables or passages of the source. Where a SMILES comes first, the peptide text is derived from it.

Data set [1] in a line: pH of aqueous solution of solubilizing compound mixed with oleic acid. The format is physicochemical. Conditions: solubilizing compound in water with 0.833 mol equivalents of oleic acid.
A short description of data set [2]: Estimation of the interaction between oleic acid and the test substance. The format is physicochemical.
A short description of data set [3]: Dynamic laser light scattering (DLS) of oleic acid micro-/nanoemulsions. The format is physicochemical. The note with it: for Mean Size by Intensity: DLS, emulsion with oleic acid; for Part: percentage of the peak in the sample.
The nature of data set [4]: Estimation of solubility of the test substance in H2O. The format is physicochemical.
The nature of data set [5]: log P of the test substance.
Setting [6] is: water (H2O), test substance mixed with oleic acid.

For `Cc1c[nH]cn1`, the pH in data set [1] was determined as 8.90. The “Interaction with Oleic Acid” value in data set [2] is reported as “X, E/S”. Besides, in data set [3], the “Mean Size by Intensity” value turned out to be 224 nm and the Part was determined as 96.7%.
Regarding “4-(4,6-Diamino-2,2-dimethyl-2H-[1,3,5]triazine-1-yl”, the “Dissolved (H2O)” value in data set [4] is “(X)”. In data set [1], the pH turned out to be 11.28. The “Interaction with Oleic Acid” value in data set [2] was “X, E, S”.
Turning to `CC(=O)NC1CCSC1=O` (racemic) [DL-N-Acetylhomocysteine thiolactone, reference compound], in data set [1], the pH was 10.70.
For the molecule `CN(C)C(=N)NC(=N)N.Cl` [1,1-Dimethylbiguanide hydrochloride, reference compound], the pH in data set [1] was 9.20.
Take `Cc1ccccc1NC(=N)Nc1ccccc1C` [1,3-Di-o-tolyl-guanidine]: the log partition coefficient (logP) (usually a log measure of how a compound divides between an organic and an aqueous phase) in data set [5] (setting [6]) worked out at 3.01.
Take `N=C(N)NCCC(=O)O` [3-Guanidinopropionic acid]: the pH in data set [1] was 11.71. Besides, the “Interaction with Oleic Acid” value in data set [2] is reported as “X, E”. In data set [3], the “Mean Size by Intensity” value is 153 nm and the Part is 64.7%. The logP in the data set “physchem” was -3.77.
`O=C(O)CCCNC1=NCCN1` [4-(4,5-Dihydro-1H-imidazol-2-ylamino)-butyric acid]: the pH in data set [1] was 8.63 and 11.5. For the same molecule, the “Interaction with Oleic Acid” value in data set [2] is on record as “X, E”. Moreover, in data set [3], the “Mean Size by Intensity” value is recorded as 627 nm and the Part turned out to be 58.9%. Besides, in data set [5] (setting [6]), the logP is -1.6.
As to `Cl.N=C(N)Nc1ccc(C(=O)O)cc1` [4-Guanidinobenzoic acid hydrochloride], the “Dissolved (H2O)” value in data set [4] is given as “(X)”. For the same molecule, the pH in data set [1] was 11.19. In data set [2], the “Interaction with Oleic Acid” value was “X, E”. The molecule also yielded a logP in data set [5] (setting [6]) of 0.604.
For `N=C(N)NCCCC(=O)O` [4-Guanidinobutyric acid], the pH in data set [1] was 10.41. The “Interaction with Oleic Acid” value in data set [2] is on record as “X, E”. Moreover, the lipophilicity (logP) in the data set “physchem” was -3.44.
Regarding `N=C(N)NCCCCCC(=O)O` [6-Guanidinohexanoic acid], the “Dissolved (H2O)” value in data set [4] is “(X)”. The pH in data set [1] amounted to 9.01. Further, the “Interaction with Oleic Acid” value in data set [2] is “(X), E”. For the same molecule, the lipophilicity (logP) in data set [5] (setting [6]) was -3.6.
Turning to `N=C(N)N[C@@H](CCC(=O)O)C(=O)O` [(S)-(−)-2-Guanidinoglutaric acid], the pH in data set [1] is 10.15. Further, the “Interaction with Oleic Acid” value in data set [2] is “X, E”. Besides, in data set [5] (setting [6]), the logP is -3.14.
`N=C(N)NCCCCN.O=S(=O)(O)O` [Agmatin sulfate]: in data set [1], the pH came out at 10.53. Also, the “Interaction with Oleic Acid” value in data set [2] is reported as “X, S”. The logP in “physchem” is -1.81.
Take `N=C(N)NCCC[C@H](N)C(=O)N[C@@H](Cc1ccccc1)C(=O)O` [Arg-Phe]: in data set [5], the lipophilicity (logP) is -3.34.
As to `CC(=O)O.CC(=O)O.N=C(NCCCCCCNC(=N)NC(=N)Nc1ccc(Cl)cc1)NC(=N)Nc1ccc(Cl)cc1` [Chlorhexidine diacetate, 1,1′-hexamethylenbis[5-(4-chlorphenyl)-biguanide], reference compound], the “Dissolved (H2O)” value in data set [4] is given as “(X)”. Further, the pH in data set [1] was 6.51 and 9.58. The “Interaction with Oleic Acid” value in data set [2] is reported as “X, S”.
On to `CN/C(=N/CCSCc1nc[nH]c1C)NC#N` [Cimetidine, 2-cyan-1-methyl-3-[2-(5-methylimidazol-4-ylmethylsulfanyl)-ethyl]-guanidine, reference compound], for which the “Dissolved (H2O)” value in data set [4] is on record as “((X))”. The pH in data set [1] turned out to be 9.54. In addition, the “Interaction with Oleic Acid” value in data set [2] is listed as “X, E”. Further, in data set [3], the “Mean Size by Intensity” value was 239 nm and the Part stood at 67.2%. In addition, in the data set “physchem”, the log partition coefficient (logP) came out at 0.19.
For `CN(CC(=O)O)C(=N)N` [Creatine], the “Interaction with Oleic Acid” value in data set [2] was “(X), E”. The logP in “physchem” was -0.884.
Consider `C[C@@H](N[C@@H](CCCN=C(N)N)C(=O)O)C(=O)O` [D-(+)-Octopine], for which, in data set [1], the pH amounted to 6.70. In data set [2], the “Interaction with Oleic Acid” value is recorded as “X, E”. Further, in data set [3], the “Mean Size by Intensity” value turned out to be 435 nm and the Part came to 94.7%.
Consider `COC(=O)[C@H](N)CCCNC(=N)N.Cl.Cl` [D-arginine methyl ester dihydrochloride], for which, in data set [1], the pH worked out at 11.35. The “Interaction with Oleic Acid” value in data set [2] is given as “X, S”. In “physchem”, the logP was -2.11.
As to `CC(=O)NCC(=O)O.CC(=O)NCC(=O)O.N=C(N)c1ccc(N=NNc2ccc(C(=N)N)cc2)cc1` [Diminazene aceturate (basic), Diminazene aceturate, reference compound], in data set [2], the “Interaction with Oleic Acid” value was “X, S, (E)”. In data set [3], the “Mean Size by Intensity” value is 426 nm and the Part is 60.7%.
Take `NCC(=O)N[C@@H](Cc1ccccc1)C(=O)O` [Gly-Phe, reference compound] (H-Gly-Phe-OH; N-terminus and C-terminus assumed): the lipophilicity (logP) in data set [5] was -0.65.
On to `NC(N)=NCC(=O)O` [Guanidine acetic acid], for which the “Dissolved (H2O)” value in data set [4] is “((X))”. Besides, the pH in data set [1] was 6.20. In addition, in data set [2], the “Interaction with Oleic Acid” value is on record as “(X), E/S”. In addition, the log P (as a rule, the decadic logarithm of the partition coefficient of the neutral form, usually between octanol and water) in data set [5] is −2.387.
For the molecule `N=C(N)N` [Guanidinehydrochloride], the pH in data set [1] is reported as 12.71. Moreover, the “Interaction with Oleic Acid” value in data set [2] is reported as “X, E”. In addition, in the data set “physchem”, the logP is -1.03.
Turning to `NC(N)=NCCCC[C@H](N)C(=O)O` [H-Homoarg-OH], the pH in data set [1] turned out to be 8.66. Also, the “Interaction with Oleic Acid” value in data set [2] is “X, E”. Moreover, in data set [3], the “Mean Size by Intensity” value was found to be 107 nm and the Part was determined as 68.5%.
As to `c1c[nH]cn1` [Imidazole], in the data set “physchem”, the logP is -0.67.
On to `Cl.N=C(N)NC[C@H](N)C(=O)O` [L-2-Amino-3-guanidinopropionic acid hydrochloride], for which the pH in data set [1] was 11.05. Moreover, the “Interaction with Oleic Acid” value in data set [2] was “X, E”. Moreover, in data set [3], the “Mean Size by Intensity” value was determined as 113 nm and the Part came to 87.2%. Also, the logP in the data set “physchem” is -3.81.
On to `NC(N)=NOCC[C@H](N)C(=O)O` [L-Canavanine free base], for which the pH in data set [1] is 8.67 and 9.04. In data set [2], the “Interaction with Oleic Acid” value was “(X), S, E and X, E”.
With `CC(=N)NCCCC[C@H](N)C(=O)O` [L-NIL], in data set [1], the pH is on record as 9.12. In data set [2], the “Interaction with Oleic Acid” value is “X, E”. In data set [3], the “Mean Size by Intensity” value amounted to 349 nm and the Part was found to be 94.1%.
Take `Nc1nc(N)nc(N)n1` [Melamine]: in data set [4], the “Dissolved (H2O)” value is “(X)”. Besides, in data set [1], the pH was 8.25. Also, the “Interaction with Oleic Acid” value in data set [2] was “X, S”. In “physchem”, the logP was -0.961.
On to `N=C(N)NC(N)=O.O.O=S(=O)(O)O` [N-Guanylurea sulfate salt hydrate], for which the “Interaction with Oleic Acid” value in data set [2] is “X, E”. In “physchem”, this molecule yielded a lipophilicity (logP) of 3.54.
With `NC(=NCC[C@H](N)C(=O)O)NO` [N-ω-Hydroxy-L-norarginine], in data set [1], the pH amounted to 9.51. In data set [2], the “Interaction with Oleic Acid” value is listed as “X, E, S”. Further, in data set [3], the “Mean Size by Intensity” value is listed as 325 nm and the Part came out at 93.9%.
As for `NC(=NCCC[C@H](N)C(=O)O)N[N+](=O)[O-]` [N-ω-Nitro-L-arginine], the pH in data set [1] was determined as 11.95. In addition, the “Interaction with Oleic Acid” value in data set [2] is reported as “X, E”. In data set [3], the “Mean Size by Intensity” value worked out at 85.5 nm and the Part is listed as 46.7%.
For the molecule `CC(=O)O.CNC(=N)NCCC[C@H](N)C(=O)O` [N-ω-monomethyl-L-arginine acetate], the pH in data set [1] amounted to 8.49. In data set [2], the “Interaction with Oleic Acid” value is “X, E”.
Take `CN(C)C(N)=NCCC[C@H](N)C(=O)O.Cl.Cl` [NG,NG-Dimethylarginine dihydrochloride]: the pH in data set [1] turned out to be 9.45. The “Interaction with Oleic Acid” value in data set [2] is “X, E”. In addition, in data set [3], the “Mean Size by Intensity” value is reported as 22.9 nm and the Part was 87.4%.
Take `[H]/N=C(\N/C(=N/[H])Nc1ccc(Cl)cc1)NC(C)C` [Proguanil hydrochloride, 1-(4-chlorphenyl)-5-isopropylbi-guanide, reference compound]: the “Dissolved (H2O)” value in data set [4] is reported as “(X)”. Besides, the pH in data set [1] is 7.66. Also, in data set [2], the “Interaction with Oleic Acid” value was “X, E”. The lipophilicity (logP) in data set [5] (setting [6]) was 2.53.
Turning to `NC(N)=NS(=O)(=O)c1ccc(N)cc1` [Sulfaguanidine, 4-amino-N-(diaminomethylen)benzensulfonamide, reference compound], the “Interaction with Oleic Acid” value in data set [2] was “X, S”. The lipophilicity (logP) in the data set “physchem” was -1.24.
For the molecule `N=C(N)NCCC[C@H](NC(=O)[C@@H](N)Cc1ccc(O)cc1)C(=O)O` [Tyr-Arg (Kyotorphin acetate), L-tyrosyl-L-arginine], in data set [1], the pH stood at 8.54. In addition, the “Interaction with Oleic Acid” value in data set [2] is “X, E”. The log partition coefficient (logP) in the data set “physchem” is -4.
For the molecule `NC(N)=O` [Urea, reference compound], the pH in data set [1] was 8.59. Moreover, the “Interaction with Oleic Acid” value in data set [2] (60° C.) is “((X))”. In data set [3], the “Mean Size by Intensity” value is on record as 341 nm and the Part was found to be 96.3%.
Consider “Aminophenylacetic acid [reference compound]”, for which the “Dissolved (H2O)” value in data set [4] is given as “(X)”. The pH in data set [1] is on record as 9.23. Moreover, the “Interaction with Oleic Acid” value in data set [2] is given as “((X))”. For the same molecule, the “log P” value in data set [5] was determined as 0.73.
As to “Argininosuccinic acid disodium salt hydrate”, in data set [1], the pH is recorded as 9.93. The “Interaction with Oleic Acid” value in data set [2] is on record as “X, E”. In data set [3], the “Mean Size by Intensity” value was determined as 721 nm and the Part is 74.6%.
For the molecule “Poly-L-arginine HCl [Poly-L-arginine HCl (70.000-150.000 MW)]”, in data set [2], the “Interaction with Oleic Acid” value is given as “X, S”.
For “polyhexamethylenbiguanide (PHMB) [Polyhexanide −5% (2300 bis 3100 MW), reference compound]”, the pH in data set [1] was 5.61 and 8.61. For the same molecule, the “Interaction with Oleic Acid” value in data set [2] was “X, S”.
